Measured values from patent US20240009175A9, “TETRAZOLE DERIVATIVES” (Merck Patent GmbH, priority 2020, published 2024).

What was measured:
human rec ACSS2 = human rec ACSS2 (Homo sapiens (Human), UniProt Q9NR19); experiment: Biochemical activity ACSS2 assay (AMP-Glo); details: human recombinant ACSS2, AMP-Glo, 180 min at 37° C.
From the text: Biochemical Activity ACSS2 Assay (IC50 ACSS2 Biochemical)
The biochemical activity assay for ACSS2 is based on the detection of released AMP by AMP-Glo™ Assay kit (Promega, Madison). The assay is run in three steps: the enzymatic reaction in which human rec ACSS2 activates acetate with ATP and Coenzyme A as cosubstrates to acetyl-CoA thereby releasing AMP and the detection reaction of AMP by AMP Glo assay in which after the destruction of the residual ATP with AMP Glo reagent 1 produced AMP is converted to ATP that is measured in a luciferase assay system (detection reagent). The ACSS2 activity correlates with the detected luminescence signal.
The assay was performed in Perkin Elmer 384 well white Proxiplates in a total volume of 8 μl.
1 nM (fc)C-term myc tagged ACSS2 (human, recombinant, Origene, Rockville, US) and a mixture of 100 μM (fc) ATP, 100 μM (fc) Coenzyme A and 500 μM (fc) sodium acetate were incubated in a total volume of 5 μl (50 mM Hepes, 1 mM Mg-chloride, 150 mM NaCl, 1 mM DTT, 0.01% (w/v) BSA, 0.3% DMSO, pH 7.5) in the absence or presence of the test compound (10 dilution concentrations, start conc 30 μM) for 180 min at 37° C. The reaction was stopped and residual ATP destroyed by the addition of 1 μl AMP Glo reagent solution (Promega, Madison, US). After 1h incubation at room temperature 2 μl of AMP Glo detection reagent was added and the assay was incubated for 0.75 hr at room temperature. The luminescence signal was measured with an Envision multimode reader (Perkin Elmer LAS Germany GmbH) at 700 nm in luminescence mode. The full value used was the inhibitor-free reaction. The pharmacological zero value was generated by addition of ACSS2 inhibitor (Ac-CoA Synthase Inhibitor—CAS 508186-14-9-Calbiochem) in a final concentration of 5 μM. The inhibitory values (IC50) were determined using the program Assay Analyzer® from GeneData.

CHO-K1 cells = experiment: Micronucleus assay (MNT) in vitro; format: cell-based; parameters: key: A: negative, putative negative (micronuclei detected beyond threshold of 60% cyctotoxicity); B: positive; details: 24 hrs treatment, 0.2 μM to 100 μM
Description: The in vitro MNT assay is performed in CHO-K1 cells due to their stable and well-characterized karyotype, high sensitivity and suitability for a high content imaging approach. They have a basal spontaneous micronucleus frequency of 3-4%.
24 hrs after plating CHO-K1 cells are treated with test compounds for 24 hrs (in duplicates; fixed concentration ranges from 0.2 μM to 100 μM in 2-fold dilution steps). After a medium change cells are incubated for 24 hrs with Cytochalasin B to block cytokinesis and are then fixed and nuclei/micronuclei visualized with a DNA stain. Images are acquired with the Molecular Devices high content imagers IXU or IXM and are analyzed with the dedicated MetaXpress software micronucleus module. Criteria for scoring of micronuclei (MN) are the following: • diameter of the MN should be less than ⅓ of the main nucleus • MN should be separated from or marginally overlap with main nucleus (=no blebs) • MN should have similar staining as the main nucleus
At least 1000 binucleated cells are evaluated per treatment replicate. Mitomycin C is used as reference stimulator of micronucleus formation. Cytotoxicity is evaluated in parallel and defined by comparing total nuclei count in compound-treated samples to neutral control samples treated with vehicle only (1% DMSO) (100% cytotoxicity means all cells are dead or lost).
A test compound is regarded as POSITIVE if generation of micronuclei and exhibition of less than 60% cytotoxicity at the same concentration can be observed.
Compounds are scored only in the soluble concentration range.
Experimental data of the compounds shown in Table 1 in the MNT assay are shown in Table 2 below and classified in the following groups: […]

ACSS2 = ACSS2 (Homo sapiens (Human), UniProt Q9NR19); experiment: Cellular assay of 14C acetate incorporation into histones (IC50 ACSS2 cellular histone); format: cell-based; details: HCT-15 cells
ACSS2, sequence (Q9NR19 whole entry): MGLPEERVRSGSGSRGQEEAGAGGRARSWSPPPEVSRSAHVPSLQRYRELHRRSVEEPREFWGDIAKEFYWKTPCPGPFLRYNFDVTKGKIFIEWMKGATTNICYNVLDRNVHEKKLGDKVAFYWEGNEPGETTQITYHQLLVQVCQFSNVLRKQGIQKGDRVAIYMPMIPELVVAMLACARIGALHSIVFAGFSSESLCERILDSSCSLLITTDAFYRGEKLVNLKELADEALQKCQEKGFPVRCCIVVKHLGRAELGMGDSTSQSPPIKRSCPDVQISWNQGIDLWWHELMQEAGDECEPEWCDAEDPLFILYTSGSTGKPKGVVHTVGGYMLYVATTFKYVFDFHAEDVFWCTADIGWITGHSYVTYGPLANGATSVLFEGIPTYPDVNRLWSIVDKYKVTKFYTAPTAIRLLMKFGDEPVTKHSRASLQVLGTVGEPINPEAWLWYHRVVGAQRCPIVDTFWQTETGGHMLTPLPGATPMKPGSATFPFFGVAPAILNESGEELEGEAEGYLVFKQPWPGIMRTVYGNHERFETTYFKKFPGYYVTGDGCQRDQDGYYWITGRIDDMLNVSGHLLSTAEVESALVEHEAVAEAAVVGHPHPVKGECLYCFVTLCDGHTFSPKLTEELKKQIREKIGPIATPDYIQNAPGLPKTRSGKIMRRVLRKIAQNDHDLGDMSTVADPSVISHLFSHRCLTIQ
From the text: Cellular Assay of ^14C Acetate Incorporation into Histones (IC50 ACSS2 Cellular Histone)
This protocol describes a cellular assay capable to quantify endogenous histone acetylation activity in the human HCT-15 cancer cell line following the incorporation of extracellularly administered radiolabeled ^14C acetate with a scintillation based read out on acid extracted histones.
HCT-15 cells are trypsinized, washed and suspended in DMEM culture medium supplemented with penicillin/streptomycin (100 U/mL), sodium pyruvate (1 mM), and 10% FBS
Compounds serial dilutions are prepared in 96-well V-bottom microplate from 10 mM stock solutions in DMSO. From these dilutions 0.5 μl are transferred to a fresh plate including pure DMSO as negative control. The dilutions are prepared such, that the final concentration in the assay is 1/400 of the concentration in the serial dilution. The final DMSO concentration in the assay is 0.25%.
The cell suspension is seeded at densities of 2×10^5 cells per 170 μl into individual wells of a 96 well plate each containing 0.5 μl aliquots of compound serial dilutions and are kept for 1 h in a cell incubator. To each well 30 μL of a mixture containing 0.5 mCi/mL of ^14C-acetate with full medium are added. Then, the wells are incubated for 3 hrs in the cell incubator.
Further steps of the procedure should be conducted on ice or instrumentations precooled to 4° C. Cells are sedimented in the 96-well V-bottom microplate by centrifugation (Eppendorf 5804 R) at 1200 rpm for 5 min. The supernatant is removed and the cells are washed twice with 200 μL of PBS-NaB (5 mM sodium butyrate) buffer by iterative resuspension and centrifugation. Finally, the cells are resuspended in 50 μL of TEB (PBS-NaB+0.5% Triton X-100) and left on ice for 10 minutes. After centrifugation at 2300 rpm for 10 minutes at 4° C. the supernatant is removed, the remaining pellet is suspended in 50 μL of 0.2M HCl and incubated over night at 4° C. After incubation the well plate is shaken for 2 minutes in a MTP plate shaker set to 1200 rpm and then centrifuged at 3700 rpm for 10 mins. The lysate is carefully aspirated (˜43 μL) and transferred into a white MTP plate (Greiner bio-one 65509). 90 μL of Ultima Gold XR scintillation cocktail are added and the plates are sealed with a transparent cover tape before mixing vigorously using plate shaker set to 1200 rpm. Radioactivity from ^14C incorporation in the wells is measured as CPM count in a MicroBeta Trilux luminescence counter.

human rec ACSS2, sequence (Q9NR19 whole entry): as above

Row | Structure (SMILES) | IC50 (human rec ACSS2) [nM] | IC50 (ACSS2) [nM] | MNT (CHO-K1 cells)
1 | CCn1c(C(O)(c2ccccc2F)c2ccccc2F)nc2nc(F)c(-c3nnn[nH]3)cc21 [Compound 46, [1-ethyl-5-fluoro-6-(1H-1,2,3,4-tetrazol-5-yl)-1H-imidazo[4,5-b]pyridin-2-yl]bis(2-fluorophenyl)methanol] | 10 to 100 | 10 to 100 | A
2 | CCc1c(C(O)(c2ccccc2)c2ccn(C)n2)nc2cc(OC)c(-c3nnn[nH]3)cn12 (single isomer, unassigned) [Compound 18, [3-Ethyl-7-methoxy-6-(1H-tetrazol-5-yl)-imidazo[1,2-a]pyridin-2-yl]-(1-methyl-1H-pyrazol-3-yl)-phenyl-methanol] | 10 to 100 | – | –
3 | [2H]c1c([2H])c([2H])c(C(O)(c2c([2H])c([2H])c([2H])c([2H])c2[2H])c2nc3nc(OC)c(-c4nnn[nH]4)cc3n2CC)c([2H])c1[2H] [Compound 63, [1-ethyl-5-methoxy-6-(1H-1,2,3,4-tetrazol-5-yl)-1H-imidazo[4,5-b]pyridin-2-yl]bis[(2,3,4,5,6-^2H5)phenyl]methanol] | 0.01 to 1 | 1 to 10 | –
4 | CCc1c(C(O)(c2ccccc2)c2ccccn2)nc2cc(Cl)c(-c3nnn[nH]3)cn12 (single isomer, unassigned) [Compound 7, [7-chloro-3-ethyl-6-(1H-tetrazol-5-yl)imidazo[1,2-a]pyridin-2-yl]-phenyl-(2-pyridyl)methanol] | 10 to 100 | – | A
5 | CCn1c(C(O)(c2ccccc2)c2ccncn2)nc2nc(OC)c(-c3nnn[nH]3)cc21 (racemic) [Compound 25, [1-ethyl-5-methoxy-6-(1H-1,2,3,4-tetrazol-5-yl)-1H-imidazo[4,5-b]pyridin-2-yl](phenyl)(pyrimidin-4-yl)methanol] | 1 to 10 | 1 to 10 | –
6 | CCc1cc2nc(C(O)(c3ccccc3)c3ccccc3)c(CC)n2cc1-c1nnn[nH]1 [Compound 1, [3,7-diethyl-6-(1 H-1,2,3,4-tetrazol-5-yl)imidazo[1,2-a]pyridin-2-yl]diphenylmethanol] | 1 to 10 | – | –
7 | CCn1c(C(O)(c2ccccc2)c2ccncc2)nc2nc(OC)c(-c3nnn[nH]3)cc21 (racemic) [Compound 43, [1-ethyl-5-methoxy-6-(1H-1,2,3,4-tetrazol-5-yl)-1H-imidazo[4,5-b]pyridin-2-yl](phenyl)(pyridin-4-yl)methanol] | 10 to 100 | 100 to 10000 | –
8 | CCn1c(C(O)(c2ccccc2)c2ccccn2)nc2nc(OC)c(-c3nnn[nH]3)cc21 (single isomer, unassigned) [Compound 41, [1-ethyl-5-methoxy-6-(1H-1,2,3,4-tetrazol-5-yl)-1H-imidazo[4,5-b]pyridin-2-yl](phenyl)(pyridin-2-yl)methanol] | 10 to 100 | 1 to 10 | –
9 | CCn1c(C(O)(c2ccccc2)c2nccs2)nc2nc(OC)c(-c3nnn[nH]3)cc21 (single isomer, unassigned) [Compound 32, [1-ethyl-5-methoxy-6-(1H-1,2,3,4-tetrazol-5-yl)-1H-imidazo[4,5-b]pyridin-2-yl](phenyl)(1,3-thiazol-2-yl)methanol] | 0.01 to 1 | – | A

Continued, in another order:

Row | IC50 (human rec ACSS2) [nM] | IC50 (ACSS2) [nM] | Structure (SMILES) | MNT (CHO-K1 cells)
10 | 10 to 100 | 10 to 100 | CCn1c(C(O)(c2ccccc2C)c2ccccc2C)nc2nc(OC)c(-c3nnn[nH]3)cc21 [Compound 39, [1-ethyl-5-methoxy-6-(1H-1,2,3,4-tetrazol-5-yl)-1H-imidazo[4,5-b]pyridin-2-yl]bis(2-methylphenyl)methanol] | –
11 | 10 to 100 | 100 to 10000 | CCc1c(C(O)(c2ccccc2)c2ncccn2)nc2cc(OC)c(-c3nnn[nH]3)cn12 (single isomer, unassigned) [Compound 14, [3-Ethyl-7-methoxy-6-(1H-tetrazol-5-yl)-imidazo[1,2-a]pyridin-2-yl]-phenyl-pyrimidin-2-yl-methanol] | –
12 | 10 to 100 | 100 to 10000 | CCn1c(C(O)(c2ccccc2)c2cccnc2)nc2nc(OC)c(-c3nnn[nH]3)cc21 (racemic) [Compound 44, [1-ethyl-5-methoxy-6-(1H-1,2,3,4-tetrazol-5-yl)-1H-imidazo[4,5-b]pyridin-2-yl](phenyl)(pyridin-3-yl)methanol] | –
13 | 100 to 10000 | – | CCc1c(C(O)(c2ccccc2)c2ccn(C)n2)nc2cc(OC)c(-c3nnn[nH]3)cn12 (single isomer, unassigned) [Compound 17, [3-Ethyl-7-methoxy-6-(1H-tetrazol-5-yl)-imidazo[1,2-a]pyridin-2-yl]-(1-methyl-1H-pyrazol-3-yl)-phenyl-methanol] | –
14 | 1 to 10 | 10 to 100 | CCn1c(C(O)(c2ccccc2)c2ccc(OC(F)F)cc2)nc2nc(OC)c(-c3nnn[nH]3)cc21 (racemic) [Compound 53, [4-(difluoromethoxy)phenyl][1-ethyl-5-methoxy-6-(1H-1,2,3,4-tetrazol-5-yl)-1H-imidazo[4,5-b]pyridin-2-yl]phenylmethanol] | –
15 | 1 to 10 | 1 to 10 | CCn1c(C(O)(c2ccccc2F)c2ccc(OC(F)F)cc2F)nc2nc(OC)c(-c3nnn[nH]3)cc21 (racemic) [Compound 54, [4-(difluoromethoxy)-2-fluorophenyl][1-ethyl-5-methoxy-6-(1H-1,2,3,4-tetrazol-5-yl)-1H-imidazo[4,5-b]pyridin-2-yl](2-fluorophenyl)methanol] | –
16 | 100 to 10000 | – | CCc1c(C(O)(c2ccccc2)c2ncccn2)nc2cc(OC)c(-c3nnn[nH]3)cn12 (single isomer, unassigned) [Compound 15, [3-Ethyl-7-methoxy-6-(1H-tetrazol-5-yl)-imidazo[1,2-a]pyridin-2-yl]-phenyl-pyrimidin-2-yl-methanol] | –
17 | 0.01 to 1 | – | COc1nc2nc(C(O)(c3ccccc3)c3ccccc3)n(C)c2cc1-c1nnn[nH]1 [Compound 24, [5-methoxy-1-methyl-6-(1H-1,2,3,4-tetrazol-5-yl)-1H-imidazo[4,5-b]pyridin-2-yl]diphenylmethanol] | –
